Reference: patent US9334264B2, “NAMPT inhibitors” (AbbVie Inc., priority 2012, dated 2016)

What was measured:
[1] = target: NAMPT (Homo sapiens, UniProt P43490); experiment: Time-Resolved Fluorescence Resonance Energy Transfer (TR-FRET) Binding Assay of NAMPT with PRPP; settings: 200 μM PRPP and 2.5 mM ATP; 2 nM NAMPT, 2 nM probe, equilibrated 16 hours
Procedure, shortened: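 Compounds were equilibrated for 16 hours before TR-FRET readout, with substrates present (200 μM PRPP, 2.5 mM ATP) to permit enzymatic modification. Final mix: 2 nM His-tagged NAMPT, 2 nM probe, 1 nM Tb-anti-His antibody, 2% DMSO.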

[2] = target: NAMPT (human, recombinant, C-terminally His-tagged) (Homo sapiens, UniProt P43490); experiment: Time-Resolved Fluorescence Resonance Energy Transfer (TR-FRET) Binding Assay of NAMPT; settings: absence of substrates; 6.8 nM NAMPT, 200 nM probe, equilibrated 3 hours
Chain of NAMPT (human, recombinant, C-terminally His-tagged) (P43490 whole entry): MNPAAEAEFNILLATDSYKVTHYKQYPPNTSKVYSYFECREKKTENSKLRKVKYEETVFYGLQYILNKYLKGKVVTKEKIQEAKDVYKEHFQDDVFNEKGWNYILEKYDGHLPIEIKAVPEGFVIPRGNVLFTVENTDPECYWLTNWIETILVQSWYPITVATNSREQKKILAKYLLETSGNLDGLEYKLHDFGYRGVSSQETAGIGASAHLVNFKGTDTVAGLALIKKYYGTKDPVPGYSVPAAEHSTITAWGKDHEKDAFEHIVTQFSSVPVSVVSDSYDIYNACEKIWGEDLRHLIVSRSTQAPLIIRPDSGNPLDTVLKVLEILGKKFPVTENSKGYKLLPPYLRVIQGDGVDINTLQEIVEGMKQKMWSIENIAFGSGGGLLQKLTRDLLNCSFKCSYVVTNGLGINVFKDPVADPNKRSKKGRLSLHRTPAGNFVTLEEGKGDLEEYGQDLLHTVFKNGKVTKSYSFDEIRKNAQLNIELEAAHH
Procedure, shortened: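 Compounds (typically 11 half-log dilutions, 2% DMSO final) equilibrated 3 h at room temperature with 6.8 nM human C-His NAMPT, 1 nM Tb-anti-His antibody and 200 nM fluorescent competitive probe in pH 7.5 HEPES buffer. IC50 derived by logistic fit of normalized TR-FRET ratio (520/495 nm).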

Chain of NAMPT (P43490 whole entry): as above

SMILES	IC50 [1]	IC50 [2]
COCCN(C(=O)Cc1cccnc1)c1ncc(C(=O)NCCCn2ccnc2)s1 [Example 184, N-[3-(1H-imidazol-1-yl)propyl]-2-[(2-methoxyethyl)(pyridin-3-ylacetyl)amino]-1,3-thiazole-5-carboxamide]	0.285 nM	763 nM
CC(=O)NCC(C)CNC(=O)N(Cc1ccc(C#N)cc1)c1ncc(C(=O)NCCCn2ccnc2)s1 (stereo not shown) [Example 141, 2-[{[3-(acetylamino)-2-methylpropyl]carbamoyl}(4-cyanobenzyl)amino]-N-[3-(1H-imidazol-1-yl)propyl]-1,3-thiazole-5-carboxamide]	23.1 nM	> 10000 nM
COCCC(=O)N(Cc1ccc(C)nc1)c1ncc(C(=O)NCCCn2ccnc2)s1 [Example 113, N-[3-(1H-imidazol-1-yl)propyl]-2-{(3-methoxypropanoyl)[(6-methylpyridin-3-yl)methyl]amino}-1,3-thiazole-5-carboxamide]	6.76 nM	4990 nM
O=C(NCCCn1ccnc1)c1cnc(N(Cc2ccc(F)cc2)Cc2ccc(Cl)cc2)s1 [Example 15, 2-[(4-chlorobenzyl)(4-fluorobenzyl)amino]-N-[3-(1H-imidazol-1-yl)propyl]-1,3-thiazole-5-carboxamide]	92.1 nM	3820 nM
COCCCN1CCN(CC(=O)N(Cc2ccc(F)cc2)c2ncc(C(=O)NCCCn3ccnc3)s2)CC1 [Example 38, 2-[(4-fluorobenzyl){[4-(3-methoxypropyl)piperazin-1-yl]acetyl}amino]-N-[3-(1H-imidazol-1-yl)propyl]-1,3-thiazole-5-carboxamide]	1.35 nM	2690 nM
Cc1cc(C(=O)N(CCC(C)C)c2ncc(C(=O)NCCCn3ccnc3)s2)no1 [Example 135, N-(5-{[3-(1H-imidazol-1-yl)propyl]carbamoyl}-1,3-thiazol-2-yl)-5-methyl-N-(3-methylbutyl)-1,2-oxazole-3-carboxamide]	0.169 nM	93.7 nM
COCCC(=O)N(CC(=O)N1CCCCC1)c1ncc(C(=O)NCCCn2ccnc2)s1 [Example 196, N-[3-(1H-imidazol-1-yl)propyl]-2-{(3-methoxypropanoyl)[2-oxo-2-(piperidin-1-yl)ethyl]amino}-1,3-thiazole-5-carboxamide]	0.538 nM	7010 nM
O=C(NCCCn1ccnc1)c1cnc(N(Cc2ccc(F)cc2)C(=O)CC2CCOCC2)s1 [Example 4, 2-[(4-fluorobenzyl)(tetrahydro-2H-pyran-4-ylacetyl)amino]-N-[3-(1H-imidazol-1-yl)propyl]-1,3-thiazole-5-carboxamide]	0.548 nM	1220 nM
COCCC(=O)N(CC1CCC(=O)N1)c1ncc(C(=O)NCCCn2ccnc2)s1 (stereo not shown) [Example 194, N-[3-(1H-imidazol-1-yl)propyl]-2-{(3-methoxypropanoyl)[(5-oxopyrrolidin-2-yl)methyl]amino}-1,3-thiazole-5-carboxamide]	1.12 nM	7250 nM
CCN(CCOC)C(=O)N(Cc1ccc(F)cc1)c1ncc(C(=O)NCCCn2ccnc2)s1 [Example 71, 2-{[ethyl(2-methoxyethyl)carbamoyl](4-fluorobenzyl)amino}-N-[3-(1H-imidazol-1-yl)propyl]-1,3-thiazole-5-carboxamide]	0.7 nM	533 nM
CC(=O)O[C@@H](C)C(=O)N(CCC(C)C)c1ncc(C(=O)NCCCn2ccnc2)s1 [Example 153, (2S)-1-[(5-{[3-(1H-imidazol-1-yl)propyl]carbamoyl}-1,3-thiazol-2-yl)(3-methylbutyl)amino]-1-oxopropan-2-yl acetate]	0.286 nM	1430 nM
O=C(NCCCn1ccnc1)c1cnc(N(CCc2ccc(Cl)cn2)C(=O)C2CCOC2)s1 (stereo not shown) [Example 208, 2-{[2-(5-chloropyridin-2-yl)ethyl](tetrahydrofuran-3-ylcarbonyl)amino}-N-[3-(1H-imidazol-1-yl)propyl]-1,3-thiazole-5-carboxamide]	0.25 nM	2890 nM
CC(C)CCN(Cc1ccc(C#N)cc1)c1ncc(C(=O)NCCCn2ccnc2)s1 [Example 60, 2-[(4-cyanobenzyl)(3-methylbutyl)amino]-N-[3-(1H-imidazol-1-yl)propyl]-1,3-thiazole-5-carboxamide]	4.97 nM	> 10000 nM
COCC(=O)N(Cc1ccc(F)cc1)c1ncc(C(=O)NCCCn2ccnc2)s1 [Example 24, 2-[(4-fluorobenzyl)(methoxyacetyl)amino]-N-[3-(1H-imidazol-1-yl)propyl]-1,3-thiazole-5-carboxamide]	0.682 nM	4140 nM
O=C(NCCCn1ccnc1)c1cnc(N(CCCN2CCCCC2)Cc2ccc(F)cc2)s1 [Example 8, 2-{(4-fluorobenzyl)[3-(piperidin-1-yl)propyl]amino}-N-[3-(1H-imidazol-1-yl)propyl]-1,3-thiazole-5-carboxamide]	290 nM	3160 nM
CC(C)CCN(C(=O)C1CCOC1)c1ncc(C(=O)NCCCn2ccnc2)s1 (stereo not shown) [Example 155, N-[3-(1H-imidazol-1-yl)propyl]-2-[(3-methylbutyl)(tetrahydrofuran-3-ylcarbonyl)amino]-1,3-thiazole-5-carboxamide]	0.254 nM	669 nM
COCCC(=O)N(Cc1ccnc(OC)c1)c1ncc(C(=O)NCCCn2ccnc2)s1 [Example 94, N-[3-(1H-imidazol-1-yl)propyl]-2-{(3-methoxypropanoyl)[(2-methoxypyridin-4-yl)methyl]amino}-1,3-thiazole-5-carboxamide]	1.22 nM	2870 nM
N#Cc1ccc(CCN(C(=O)CC2CCOC2)c2ncc(C(=O)NCCCn3ccnc3)s2)cc1 (stereo not shown) [Example 52, 2-{[2-(4-cyanophenyl)ethyl](tetrahydrofuran-3-ylacetyl)amino}-N-[3-(1H-imidazol-1-yl)propyl]-1,3-thiazole-5-carboxamide]	0.881 nM	1010 nM
COCCC(=O)N(CCCN1CCCC1)c1ncc(C(=O)NCCCn2ccnc2)s1 [Example 192, N-[3-(1H-imidazol-1-yl)propyl]-2-{(3-methoxypropanoyl)[3-(pyrrolidin-1-yl)propyl]amino}-1,3-thiazole-5-carboxamide]	0.262 nM	> 10000 nM
COC(C)CNC(=O)N(Cc1ccc(C#N)cc1)c1ncc(C(=O)NCCCn2ccnc2)s1 (stereo not shown) [Example 124, 2-{(4-cyanobenzyl)[(2-methoxypropyl)carbamoyl]amino}-N-[3-(1H-imidazol-1-yl)propyl]-1,3-thiazole-5-carboxamide]	0.624 nM	3520 nM
COCCC(=O)N(CCc1ccccn1)c1ncc(C(=O)NCCCn2ccnc2)s1 [Example 101, N-[3-(1H-imidazol-1-yl)propyl]-2-{(3-methoxypropanoyl)[2-(pyridin-2-yl)ethyl]amino}-1,3-thiazole-5-carboxamide acetate (1:1)]	2.84 nM	5620 nM
COCCC(=O)N(CC(O)c1ccc(OC)cc1)c1ncc(C(=O)NCCCn2ccnc2)s1 (stereo not shown) [Example 109, 2-{[2-hydroxy-2-(4-methoxyphenyl)ethyl](3-methoxypropanoyl)amino}-N-[3-(1H-imidazol-1-yl)propyl]-1,3-thiazole-5-carboxamide acetate (1:1)]	3.74 nM	> 10000 nM
N#Cc1ccc(CN(C(=O)NCCCO)c2ncc(C(=O)NCCCn3ccnc3)s2)cc1 [Example 130, 2-{(4-cyanobenzyl)[(3-hydroxypropyl)carbamoyl]amino}-N-[3-(1H-imidazol-1-yl)propyl]-1,3-thiazole-5-carboxamide]	1.11 nM	> 10000 nM
COCCC(=O)N(Cc1ccccc1C)c1ncc(C(=O)NCCCn2ccnc2)s1 [Example 119, N-[3-(1H-imidazol-1-yl)propyl]-2-[(3-methoxypropanoyl)(2-methylbenzyl)amino]-1,3-thiazole-5-carboxamide]	1.89 nM	4570 nM
C=C[C@@H](CO)NC(=O)N(Cc1ccc(C#N)cc1)c1ncc(C(=O)NCCCn2ccnc2)s1 [Example 131, 2-[(4-cyanobenzyl){[(2S)-1-hydroxybut-3-en-2-yl]carbamoyl}amino]-N-[3-(1H-imidazol-1-yl)propyl]-1,3-thiazole-5-carboxamide]	0.743 nM	4780 nM
COCCC(=O)N(Cc1c(F)cccc1F)c1ncc(C(=O)NCCCn2ccnc2)s1 [Example 112, 2-[(2,6-difluorobenzyl)(3-methoxypropanoyl)amino]-N-[3-(1H-imidazol-1-yl)propyl]-1,3-thiazole-5-carboxamide]	2.08 nM	3680 nM
CCOCCN1CCN(CC(=O)N(Cc2ccc(F)cc2)c2ncc(C(=O)NCCCn3ccnc3)s2)CC1 [Example 35, 2-[{[4-(2-ethoxyethyl)piperazin-1-yl]acetyl}(4-fluorobenzyl)amino]-N-[3-(1H-imidazol-1-yl)propyl]-1,3-thiazole-5-carboxamide]	3.18 nM	> 10000 nM
C=CCN(CC=C)CCN(C(=O)CCOC)c1ncc(C(=O)NCCCn2ccnc2)s1 [Example 189, 2-[{2-[di(prop-2-en-1-yl)amino]ethyl}(3-methoxypropanoyl)amino]-N-[3-(1H-imidazol-1-yl)propyl]-1,3-thiazole-5-carboxamide]	0.586 nM	4700 nM
C=C[C@H](CO)NC(=O)N(Cc1ccc(C#N)cc1)c1ncc(C(=O)NCCCn2ccnc2)s1 [Example 148, 2-[(4-cyanobenzyl){[(2R)-1-hydroxybut-3-en-2-yl]carbamoyl}amino]-N-[3-(1H-imidazol-1-yl)propyl]-1,3-thiazole-5-carboxamide]	60.6 nM	> 10000 nM
